System: HCV genotype 1b replicon
Experiment: HCV replicon assay (1b_Huh-Luc/Neo-ET cell line, luciferase readout)
Type: cell-based
Conditions: Hepatitis C virus, Huh-7, 72 h, read-out: Inhibition of HCV genotype 1b
Method: Biological activity of the compounds of the invention was determined using an HCV replicon assay. The 1b_Huh-Luc/Neo-ET cell line persistently expressing a bicistronic genotype 1b replicon in Huh 7 cells was obtained from ReBLikon GMBH. This cell line was used to test compound inhibition using luciferase enzyme activity readout as a measurement of compound inhibition of replicon levels.
On Day 1 (the day after plating), each compound is added in triplicate to the cells. Plates incubated for 72 h prior to running the luciferase assay. Enzyme activity was measured using a Bright-Glo Kit (cat. number E2620) manufactured by Promega Corporation. The following equation was used to generate a percent control value for each compound. % Control=(Average Compound Value/Average Control)*100
The EC50 value was determined using GraphPad Prism and the following equation: Y=Bottom+(Top−Bottom)/1+10^((Log IC50−X)*HillSlope))
EC50 values of compounds are repeated several times in the replicon assay.

Row | Compound | EC50
1 | CNC(=O)N[C@@H](C(=O)N1CCC[C@H]1c1nc(-c2ccc3cc(-c4ccc(-c5cnc([C@@H]6CCCN6C(=O)[C@@H](NC(=O)OC)C(C)C)[nH]5)cc4)ccc3c2)c[nH]1)c1ccccc1 [14s] | < 1 nM
2 | COC(=O)N[C@H](C(=O)N1CCC[C@H]1c1ncc(-c2ccc(-c3ccc4cc(-c5c[nH]c([C@@H]6CCCN6C(=O)[C@@H](c6ccccc6)N6CCCC6)n5)ccc4c3)cc2)[nH]1)C(C)C [Compound 9] | < 1 nM
3 | CNC(=O)N[C@@H](C(=O)N1CCC[C@H]1c1ncc(-c2ccc(-c3ccc4cc(-c5c[nH]c([C@@H]6CCCN6C(=O)[C@@H](NC(=O)OC)C(C)C)n5)ccc4c3)cc2)[nH]1)c1ccccc1 [Compound 18] | < 1 nM
4 | COC(=O)N[C@H](C(=O)N1CCC[C@H]1c1nc(-c2ccc3cc(-c4ccc(-c5cnc([C@@H]6CCCN6C(=O)[C@@H](NC(=O)OC)C(C)C)[nH]5)cc4)ccc3c2)c[nH]1)C(C)C [compound 1] | < 1 nM
5 | COC(=O)N[C@@H](C(=O)N1CCC[C@H]1c1nc(-c2ccc3cc(-c4ccc(-c5cnc([C@@H]6CCCN6C(=O)[C@H](NC(=O)OC)C(C)C)[nH]5)cc4)ccc3c2)c[nH]1)C(C)C [compound 2] | < 1 nM
6 | COC(=O)N[C@H](C(=O)N1CCC[C@H]1c1nc(-c2ccc3cc(-c4ccc(-c5cnc([C@@H]6CCCN6C(=O)[C@@H](NC(=O)OC)[C@@H](C)OC)[nH]5)cc4)ccc3c2)c[nH]1)[C@@H](C)OC [compound 3] | < 1 nM
7 | COC(=O)N[C@H](C(=O)N1CCC[C@H]1c1nc(-c2ccc3cc(-c4ccc(-c5cnc([C@@H]6CCCN6C(=O)[C@@H](NC(=O)OC)[C@@H](C)O)[nH]5)cc4)ccc3c2)c[nH]1)[C@@H](C)O [compound 4] | < 1 nM
8 | COC(=O)N[C@H](C(=O)N1CCC[C@H]1c1nc(-c2ccc3cc(-c4ccc(-c5cnc([C@@H]6CCCN6C(=O)[C@@H](c6ccccc6)N(C)C)[nH]5)cc4)ccc3c2)c[nH]1)C(C)C [compound 5] | < 1 nM
9 | COC(=O)N[C@H](C(=O)N1CCC[C@H]1c1ncc(-c2ccc(-c3ccc4cc(-c5c[nH]c([C@@H]6CCCN6C(=O)[C@@H](c6ccccc6)N(C)C)n5)ccc4c3)cc2)[nH]1)C(C)C [compound 6] | < 1 nM
10 | COC(=O)N[C@H](C(=O)N1CCC[C@H]1c1ncc(-c2ccc(-c3ccc4cc(-c5c[nH]c([C@@H]6CCCN6C(=O)[C@H](NC(=O)OC)c6ccccc6)n5)ccc4c3)cc2)[nH]1)C(C)C [compound 7] | < 1 nM
11 | COC(=O)N[C@H](C(=O)N1CCC[C@H]1c1nc(-c2ccc3cc(-c4ccc(-c5cnc([C@@H]6CCCN6C(=O)[C@H](NC(=O)OC)c6ccccc6)[nH]5)cc4)ccc3c2)c[nH]1)C(C)C [compound 8] | < 1 nM
12 | COC(=O)N[C@H](C(=O)N1CCC[C@H]1c1nc(-c2ccc3cc(-c4ccc(-c5cnc([C@@H]6CCCN6C(=O)[C@@H](c6ccccc6)N6CCCC6)[nH]5)cc4)ccc3c2)c[nH]1)C(C)C [compound 10] | < 1 nM
13 | COC(=O)N[C@H](C(=O)N1CCC[C@H]1c1nc(-c2ccc3nc(-c4ccc(-c5cnc([C@@H]6CCCN6C(=O)[C@@H](NC(=O)OC)C(C)C)[nH]5)cc4)cnc3c2)c[nH]1)C(C)C [compound 11] | < 1 nM
14 | COC(=O)N[C@H](C(=O)N1CCC[C@H]1c1ncc(-c2ccc(-c3cnc4ccc(-c5cnc([C@@H]6CCCN6C(=O)[C@@H](NC(=O)OC)C(C)C)[nH]5)cc4n3)cc2)[nH]1)C(C)C [compound 12] | 1 to 9.9 nM
15 | COC(=O)N[C@H](C(=O)N1CCC[C@H]1c1nc(-c2ccc3cc(-c4ccc(-c5cnc([C@@H]6CCCN6C(=O)[C@@H](NC(=O)OC)C(C)C)[nH]5)cn4)ccc3c2)c[nH]1)C(C)C [compound 13] | < 1 nM
16 | COC(=O)N[C@H](C(=O)N1CCC[C@H]1c1ncc(-c2ccc(-c3ccc4cc(-c5c[nH]c([C@@H]6CCCN6C(=O)[C@H](NC(=O)N6CC[C@H](O)C6)c6ccccc6)n5)ccc4c3)cc2)[nH]1)C(C)C [compound 15] | < 1 nM
17 | COC(=O)N[C@H](C(=O)N1CCC[C@H]1c1nc(-c2ccc3cc(-c4ccc(-c5cnc([C@@H]6CCCN6C(=O)[C@H](NC(=O)N6CC[C@H](O)C6)c6ccccc6)[nH]5)cc4)ccc3c2)c[nH]1)C(C)C [compound 16] | < 1 nM
18 | COC(=O)N[C@H](C(=O)N1CCC[C@H]1c1nc(-c2ccc3nc(-c4ccc(-c5cnc([C@@H]6CCCN6C(=O)[C@@H](NC(=O)OC)C(C)C)[nH]5)cc4)ncc3c2)c[nH]1)C(C)C [compound 17] | < 1 nM
19 | COC(=O)N[C@H](C(=O)N1CCC[C@H]1c1nc(-c2cnc3cc(-c4ccc(-c5cnc([C@@H]6CCCN6C(=O)[C@@H](NC(=O)OC)C(C)C)[nH]5)cc4)ccc3c2)c[nH]1)C(C)C [compound 19] | < 1 nM
20 | COC(=O)N[C@H](C(=O)N1CCC[C@H]1c1ncc(-c2ccc(-c3cccc4c(-c5cnc([C@@H]6CCCN6C(=O)[C@@H](NC(=O)OC)C(C)C)[nH]5)cccc34)cc2)[nH]1)C(C)C [compound 20] | < 1 nM

Row | Compound | EC50
21 | COC(=O)N[C@H](C(=O)N1CCC[C@H]1c1nc(-c2ccc3cc(-c4ccc(-c5cnc([C@@H]6CCCN6C(=O)[C@@H](NC(=O)OC)C(C)C)[nH]5)cc4)cnc3c2)c[nH]1)C(C)C [compound 21] | < 1 nM
22 | COC(=O)N[C@H](C(=O)N1CCC[C@H]1c1nc(-c2ccc3cc(-c4ccc(-c5cnc([C@@H]6CCCN6C(=O)[C@@H](NC(=O)OC)C(C)C)[nH]5)cc4)ncc3c2)c[nH]1)C(C)C [compound 22] | < 1 nM
23 | COC(=O)N[C@H](C(=O)N1CCC[C@H]1c1ncc(-c2ccc(-c3ccc4cc(-c5c[nH]c([C@@H]6CCCN6C(=O)[C@H](NC(=O)NC(C)(C)C)c6ccccc6)n5)ccc4c3)cc2)[nH]1)C(C)C [compound 23] | < 1 nM
24 | COC(=O)N[C@H](C(=O)N1CCC[C@H]1c1nc(-c2ccc3cc(-c4ccc(-c5cnc([C@@H]6CCCN6C(=O)[C@H](NC(=O)NC6CC6)c6ccccc6)[nH]5)cc4)ccc3c2)c[nH]1)C(C)C [compound 24] | < 1 nM
25 | COC(=O)NC(C(=O)N1CCC[C@H]1c1nc(-c2ccc3cc(-c4ccc(-c5cnc([C@@H]6CCCN6C(=O)[C@H](NC(=O)NC(C)(C)C)c6ccccc6)[nH]5)cc4)ccc3c2)c[nH]1)C(C)C (stereo partly drawn) [compound 25] | < 1 nM
26 | COC(=O)N[C@H](C(=O)N1CCC[C@H]1c1nc(-c2ccc3nc(-c4ccc(-c5cnc([C@@H]6CCCN6C(=O)[C@H](NC(=O)OC)c6ccccc6)[nH]5)cc4)ccc3c2)c[nH]1)C(C)C [compound 26] | < 1 nM
27 | CCNC(=O)N[C@@H](C(=O)N1CCC[C@H]1c1ncc(-c2ccc(-c3ccc4cc(-c5c[nH]c([C@@H]6CCCN6C(=O)[C@@H](NC(=O)OC)C(C)C)n5)ccc4c3)cc2)[nH]1)c1ccccc1 [compound 27] | < 1 nM
28 | CCNC(=O)N[C@@H](C(=O)N1CCC[C@H]1c1nc(-c2ccc3cc(-c4ccc(-c5cnc([C@@H]6CCCN6C(=O)[C@@H](NC(=O)OC)C(C)C)[nH]5)cc4)ccc3c2)c[nH]1)c1ccccc1 [compound 28] | < 1 nM
29 | COC(=O)N[C@H](C(=O)N1CCC[C@H]1c1ncc(-c2ccc(-c3ccc4cc(-c5c[nH]c([C@@H]6CCCN6C(=O)[C@H](NC(=O)NC6CC6)c6ccccc6)n5)ccc4c3)cc2)[nH]1)C(C)C [compound 29] | < 1 nM
30 | COC(=O)N[C@H](C(=O)N1CCC[C@H]1c1nc(-c2ccc3nc(-c4ccc(-c5cnc([C@@H]6CCCN6C(=O)[C@H](NC(=O)OC(C)(C)C)c6ccccc6)[nH]5)cc4)ccc3c2)c[nH]1)C(C)C [compound 30] | < 1 nM
31 | CNC(=O)N[C@@H](C(=O)N1CCC[C@H]1c1ncc(-c2ccc(-c3ccc4cc(-c5c[nH]c([C@@H]6CCCN6C(=O)[C@@H](NC(=O)OC)C(C)C)n5)ccc4n3)cc2)[nH]1)c1ccccc1 [compound 31] | < 1 nM
32 | COC(=O)N[C@H](C(=O)N1CCC[C@H]1c1nc(-c2cnc3cc(-c4ccc(-c5cnc([C@@H]6CCCN6C(=O)[C@H](NC(=O)OC)c6ccccc6)[nH]5)cc4)ccc3c2)c[nH]1)C(C)C [compound 32] | < 1 nM
33 | CCNC(=O)N[C@@H](C(=O)N1CCC[C@H]1c1ncc(-c2ccc(-c3ccc4cc(-c5c[nH]c([C@@H]6CCCN6C(=O)[C@@H](NC(=O)OC)C(C)C)n5)ccc4n3)cc2)[nH]1)c1ccccc1 [compound 33] | < 1 nM
34 | COC(=O)N[C@H](C(=O)N1CCC[C@H]1c1nc(-c2ccc3nc(-c4ccc(-c5cnc([C@@H]6CCCN6C(=O)[C@H](NC(=O)NC6CC6)c6ccccc6)[nH]5)cc4)ccc3c2)c[nH]1)C(C)C [compound 34] | < 1 nM
35 | COC(=O)N[C@H](C(=O)N1CCC[C@H]1c1ncc(-c2ccc(-c3ccc4cc(-c5c[nH]c([C@@H]6CCCN6C(=O)[C@H](NC(=O)OC(C)(C)C)c6ccccc6)n5)ccc4n3)cc2)[nH]1)C(C)C [compound 35] | < 1 nM
36 | CNC(=O)N[C@@H](C(=O)N1CCC[C@H]1c1nc(-c2ccc3nc(-c4ccc(-c5cnc([C@@H]6CCCN6C(=O)[C@@H](NC(=O)OC)C(C)C)[nH]5)cc4)ccc3c2)c[nH]1)c1ccccc1 [compound 36] | < 1 nM
37 | CCNC(=O)N[C@@H](C(=O)N1CCC[C@H]1c1nc(-c2ccc3nc(-c4ccc(-c5cnc([C@@H]6CCCN6C(=O)[C@@H](NC(=O)OC)C(C)C)[nH]5)cc4)ccc3c2)c[nH]1)c1ccccc1 [compound 37] | < 1 nM
38 | COC(=O)N[C@H](C(=O)N1CCC[C@H]1c1ncc(-c2ccc(-c3ccc4cc(-c5c[nH]c([C@@H]6CCCN6C(=O)[C@H](NC(=O)NC6CC6)c6ccccc6)n5)ccc4n3)cc2)[nH]1)C(C)C [compound 38] | < 1 nM
39 | COC(=O)N[C@H](C(=O)N1CCC[C@H]1c1ncc(-c2ccc(-c3ccc4cc(-c5c[nH]c([C@@H]6CCCN6C(=O)[C@@H](NC(=O)OC)C6CCOCC6)n5)ccc4n3)cc2)[nH]1)C(C)C [compound 39] | < 1 nM
